Assay results taken from patent US6391921B1 (priority 2000, dated 2002).

Experiments:
[1] = system: HaCaT cells; experiment: PGE2 release from UVB-irradiated HaCaT cells; format: cell-based, human; conditions: 20 mJ/cm^2 UVB, 24 hours post irradiation; FIG. 5
Source text: A bank of 8-FSX24T12/HO/UVB lamps (National Biological Corporation, Twinsburg, Ohio) that emit light predominantly in the UVB range (280-320 nm) was used to irradiate the cell cultures. The performance of the UVB lamps was always confirmed before irradiation using a UVB meter (model-500C obtained from National Biological Corporation, Twinsburg, Ohio). The dose of UVB light used to irradiate cell cultures was 20 mJ/cm^2. Confluent HaCaT cells cultured in 24-well culture dishes were washed three times with serum-free DMEM containing 1% BSA and incubated with indicated concentrations of compound D-58 for 1 hour at 37° C. […] Compound D-58 was readministered after irradiation and the cells were incubated for another 24 hours at 37° C. The cell supernatants were collected and their PGE2 concentration was measured by ELISA. The protein contents of the cell pellets were determined using the Pierce BCA protein assay method.
One of the major arachidonic acid metabolites in UVB-irradiated epidermal cells is prostaglandin E2 (PGE2), which induces edema and erythema in skin (refs 34 and 35). PGE2 release can be detected as early as 6 hours and peaks between 24-48 hours following UVB exposure. […]
To summarize, confluent monolayers of the human epidermal cell line HaCaT were either irradiated with UVB (20 mJ/cm^2) or sham irradiated. […] The drug was readministered after UVB exposure. […]

[2] = system: skh-1 mice; experiment: Histological studies of UVB-irradiated skin; format: in vivo
Source text: After mice from Example 7 were sacrificed electively, a skin specimen was removed and spread on a sheet of dental wax. An 8 mm^2 biopsy punch was taken and fixed in buffered formalin. 4-5 μm thick sections were cut from paraffin blocks. In order to study the histopathological changes in skin following UVB exposure, the tissue sections were stained with hematoxylin and eosin and the stained slides were examined microscopically.
The effects of compound D-58 on UVB-induced histological changes in skin were examined and the results are illustrated in the 40× magnifications of FIGS. 8A-8C. The normal epidermis typically has a 2-3 cell layer and contains scattered inflammatory cells especially around hair follicles (FIG. 8A). […] Large numbers of neutrophils also were accumulated in the dermis (FIG. 8B). In contrast, the skin of mice treated with compound D-58 looked very much like the skin of unirradiated controls (FIG. 8C), with 1-2 cell layers of epidermis and normal dermis.

[3] = system: RBL-2H3 mast cells; experiment: Ionomycin or thapsigargin induced calcium mobilization in mast cells; format: cell-based, rat; conditions: 30 μM compound for 20 minutes, FIG. 2B
Source text: An alternative mechanism for the cells to maintain low cytosolic calcium levels is the activation of cell plasma membrane calcium ATPase or calcium pump (refs 32 and 33). Therefore, the effect of compound D-58 on ionophore and thapsigargin induced calcium mobilization also was studied. Ionomycin takes extracellular calcium inside the cells, and bypasses most of the signal transduction events, whereas thapsigargin inhibits endoplasmic reticulum calcium pump, and selectively depletes IP3-sensitive storage resulting in an increase in the cytosolic calcium levels (ref 33). In summary, IgE-sensitized RBL-2H3 cells were treated with 30 μM compound D-58 for 20 minutes and challenged with DNP-BSA (20 ng/ml). The cells were then stimulated with either ionomycin (1 μM), or thapsigargin (2 μM). The arrows indicate the time points at which the cells were exposed to the agents.
The fluorescent Ca^2+ indicator, fluo-3/AM (Molecular Probes) was used to detect Ca^2+ mobilizations in individual cells (ref 25). Briefly, the IgE sensitized monolayers of mast cells were incubated with 1 μM fluo-3/AM at 37° C. for 30 minutes. After incubation the cells were washed twice and 1 ml PIPES buffer was added to the wells. […] The image acquisition and fluorescence intensity analysis were controlled by the software MetaFluor (Universal Imaging Co.). The background fluorescence was subtracted from each image.

SMILES: COc1ccc(CC(=O)c2c(O)cc(O)cc2O)cc1 [Compound D-58]
- PGE2 release from UVB irradiated cells [1]: inhibited the PGE2 release
- cell layers of epidermis ([2]; UVB-irradiated skin of treated mice, FIG. 8C, UVB-irradiated untreated 3-5, normal 2-3): 1-2
- edema and neutrophil influx in UVB irradiated skin ([2]; histology, hematoxylin and eosin): prevented the development of edema and neutrophil influx
- calcium response induced by ionomycin ([3]; 1 μM ionomycin): did not inhibit
- calcium response induced by thapsigargin ([3]; 2 μM thapsigargin): did not inhibit
